From patent US9926506B2, “Tetrarylmethane ethers as fuel markers” (Dow Global Technologies LLC, priority 2014, dated 2018)

melting point [°C] | Compound
110 to 113 | CCCCCOc1ccc(C(c2ccccc2)(c2ccccc2)c2ccc(OCCCCC)cc2)cc1 [BPentTPM, Bis(4-(pentyloxy)phenyl)diphenylmethane]
84.5 to 86.5 | CCCCCCCCOc1ccc(C(c2ccccc2)(c2ccccc2)c2ccc(OCCCCCCCC)cc2)cc1 [BOctTPM, Bis(4-(octyloxy)phenyl)diphenylmethane]
120 to 122 | CCCCCCOc1ccc(C(c2ccccc2)(c2ccccc2)c2ccc(OCCCCCC)cc2)cc1 [BHexTPM]
103 to 105 | CCCCCCCOc1ccc(C(c2ccccc2)(c2ccccc2)c2ccc(OCCCCCCC)cc2)cc1 [BHeptTPM, Bis(4-(heptyloxy)phenyl)diphenylmethane]
